Measurements: patent US3998843A (priority 1972, dated 1976)

What was measured:
[1] = biological target: T1, bovine erythrocyte acetylcholinesterase (Bos taurus, UniProt P23795); experiment: In vitro anticholinesterase test, method of Ellmann (acetylthiocholine substrate, Lineweaver-Burk, Ki); type: biochemical; settings: for Ki: acetylthiocholine substrate, bovine erythrocyte acetylcholinesterase, competitive conditions; for antiacetylcholinesterase potency versus neostigmine: from Ki, in words
T1 construct: bovine erythrocyte acetylcholinesterase as enzyme; from tissue; host or cells: bovine erythrocytes
T1 sequence (P23795 other isoform, or with tags, fused parts or gaps): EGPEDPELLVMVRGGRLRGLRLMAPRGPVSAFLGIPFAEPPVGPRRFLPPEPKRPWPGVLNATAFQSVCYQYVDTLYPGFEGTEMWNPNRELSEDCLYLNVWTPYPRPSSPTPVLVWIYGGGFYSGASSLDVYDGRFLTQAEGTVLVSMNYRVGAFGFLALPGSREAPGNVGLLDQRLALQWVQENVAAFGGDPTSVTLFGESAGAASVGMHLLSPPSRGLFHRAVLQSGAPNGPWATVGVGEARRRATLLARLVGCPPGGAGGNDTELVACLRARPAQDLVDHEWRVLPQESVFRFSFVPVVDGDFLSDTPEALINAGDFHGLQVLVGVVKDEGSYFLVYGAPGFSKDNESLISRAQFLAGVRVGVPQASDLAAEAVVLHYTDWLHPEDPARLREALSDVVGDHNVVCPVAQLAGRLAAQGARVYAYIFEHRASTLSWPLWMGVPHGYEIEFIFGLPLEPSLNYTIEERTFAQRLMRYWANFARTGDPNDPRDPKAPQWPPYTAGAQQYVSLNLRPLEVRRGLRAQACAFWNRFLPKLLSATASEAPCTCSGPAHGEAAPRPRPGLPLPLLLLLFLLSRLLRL
Experimental: In vitro testing of compounds was carried out by the method of Ellmann, Biochem. Pharmacol. 7, 88 (1961) with acetylthiocholine as substrate and bovine erythrocyte acetylcholinesterase as enzyme. Reaction rates were determined with and without inhibitor under competitive conditions (i.e. the substrate was added before the inhibitor). Results were plotted by the Lineweaver-Burk method and these plots were used to determine inhibitor constants (Ki values).

acetylcholinesterase [2] = biological target: T2, acetylcholinesterase (Homo sapiens, UniProt P22303); experiment: In vitro anticholinesterase activity, Michel method (acetylcholine substrate, washed human red cells as enzyme source); type: biochemical
T2 construct: washed human red cells as the source of acetylcholinesterase; from tissue; host or cells: washed human red cells
T2 sequence (P22303 other isoform, or with tags, fused parts or gaps): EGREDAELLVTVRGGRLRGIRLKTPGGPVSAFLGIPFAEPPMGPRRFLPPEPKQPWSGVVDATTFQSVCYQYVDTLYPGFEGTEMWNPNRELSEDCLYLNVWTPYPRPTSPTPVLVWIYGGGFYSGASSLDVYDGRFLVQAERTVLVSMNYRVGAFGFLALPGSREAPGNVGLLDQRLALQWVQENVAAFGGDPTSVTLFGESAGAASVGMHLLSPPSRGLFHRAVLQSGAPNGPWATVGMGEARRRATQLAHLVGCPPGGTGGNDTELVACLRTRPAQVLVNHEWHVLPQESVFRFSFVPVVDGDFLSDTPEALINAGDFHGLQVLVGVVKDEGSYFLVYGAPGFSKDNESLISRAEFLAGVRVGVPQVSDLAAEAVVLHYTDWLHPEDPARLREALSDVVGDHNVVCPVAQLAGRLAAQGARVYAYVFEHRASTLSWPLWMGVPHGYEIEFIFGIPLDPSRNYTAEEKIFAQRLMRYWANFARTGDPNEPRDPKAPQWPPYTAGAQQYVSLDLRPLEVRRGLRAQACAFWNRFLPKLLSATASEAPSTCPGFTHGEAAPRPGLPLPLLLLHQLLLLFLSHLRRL
Experimental: Screening for anticholinesterase activity was carried out in vitro by the Michel method (J. Lab. Clin. Med 34, 1564, (1949)) using acetylcholine as substrate, washed human red cells as the source of acetylcholinesterase.

[3] = tested on: tubocurarine-induced muscle blockade; experiment: Reversal of tubocurarine-induced muscle blockade in rats (anterior tibialis twitch); type: in vivo; settings: iv; Rat; injected into the femoral vein; read-out: Dose necessary to produce maximum anti-curare effect
Excerpt: (§1) D-Tubocurarine is used clinically to produce relaxation of skeletal muscles in patients undergoing certain surgical procedures. Following the completion of surgery antiacetylcholinesterases are used to reverse this relaxation. Experiments have been carried out to measure the ability of the compounds of the invention to reverse tubocurarine-induced muscle blockade in rats and cats.
(§2) The method was based on that of Zaimis E, J. Physiol 122, 238 (1953) in which animals were anaesthetised and the left hind limb clamped ridigly in a horizontal position with the tendon of the anterior tibialis muscle attached to a flat spring myograph. Twitches of the anterior tibialis muscle were induced by supramaximal electrical stimulation of the tibial nerve and recorded on a strip recorder. Drugs dissolved in 0.9% saline were injected into the femoral vein. During an experiment the dose of tubocurarine necessary to establish a partial (80 to 90%) blockade of neuromuscular transmission was established an anticholinisterase drugs were subsequently injected at the time of maximum blockade. Recovery achieved after the administration of an antiacetylcholinesterase was compared with the recovery after tubocurarine alone.

muscarinic activity = experiment: Muscarinic activity in animal experimentation; type: in vivo
[4] = Intravenous LD50 in rats and therapeutic ratio; type: in vivo, rat; settings: for margin of safety when used in man: expected from the rat therapeutic ratios; for selectivity ratio / LD50: rat, in vivo, rats; for selectivity ratio: iv, ratio of LD50 to the dose giving maximum tubocurarine reversal; for LD50: intravenous
Excerpt: The intravenous LD50 has been determined in rats for the three above mentioned drugs and from the results obtained the therapeutic ratios (defined as the ratio of LD50 to the dose giving maximum tubocurarine reversal) have been calculated: […]

[5] = tested on: tubocurarine-induced muscle blockade; experiment: Reversal of tubocurarine-induced muscle blockade in cats (anterior tibialis twitch); type: in vivo; settings: Felis catus, iv; Cat; injected into the femoral vein; read-out: Dose necessary to produce maximum anti-curare effect
Excerpt: as §1, §2

[6] = tested on: constriction of the pupil in the eye of the mouse; experiment: Mouse miosis test of Schneider; type: in vivo; settings: for Potency, Mouse Miosis: SC, relative to neostigmine (1.0); for in vivo potency versus neostigmine: mouse miosis, in words
Experimental: (§3) In vivo testing was carried out employing the mouse miosis test of Schneider R, J. Pharm. Pharmacol. 22, 298 (1970) in which antiacetylcholinesterases induce constriction of the pupil in the eye of the mouse, and the rat chromodacryorrhoea test of Burgen A.S.V.Brit.J.Pharmacol. 4; 185 (1949) in which antiacetylcholinesterases potentiate the ability of acetylcholine to provoke red tears in rats. Both tests enable the potency and duration of action of antiacetylcholinesterases to be assessed.

[7] = tested on: ability of acetylcholine to provoke red tears in rats; experiment: Rat chromodacryorrhoea test of Burgen; type: in vivo; settings: for Potency, Rat chromod.: IP, relative to neostigmine (1.0); for in vivo potency versus neostigmine: rat chromodacryorrhoea, in words
Experimental: as §3

[8] = tested on: neuromuscular effects of tubocurarine; experiment: Reversal of tubocurarine neuromuscular effects in man (human volunteers; anterior compartment leg muscle twitch); type: in vivo; settings: for recovery from tubocurarine block: I.V. in saline, 0.6 to 0.8 mg methobromide or 2.5 mg neostigmine (after 1.2 mg atropine)
Experimental: Substantiation for some of these estimates has come from the results of tests carried out in human volunteers. In these experiments contractions of the anterior compartment leg muscles were induced by supramaximal stimulation of the lateral popliteal nerve. After recording a period of control activity, tubocurarine was administered as a slow I.V. infusion until the muscle twitch height was reduced to approximately 50% of control levels. Three minutes later the anticholinesterase was administered (I.V. in saline) and the twitch height monitored until control levels were re-attained.

[9] = tested on: neuromuscular effects of tubocurarine; settings: in the clinic; cited from earlier work
acetylcholinesterase [10] = settings: after dosage; as thought by some workers; cited from earlier work

Which Ki [1] does the source give for `C[N+]1([C@@H]2CCCC[C@@H]2c2ccccc2)CCCC1` (relative stereo) [Example 1, cis-2-Phenyl-1-pyrrolidinocyclohexane Methiodide] here?
The Ki was 7.7 nM.

And the “antiacetylcholinesterase potency versus neostigmine” value [1]?
Its value is “more potent than neostigmine”.

What about the IC50 (acetylcholinesterase [2]) of the same compound?
Its IC50 is 200 nM.

And the ED (maximum effect) [3]?
The ED (maximum effect) was 0.1 mg/kg.

What about the muscarinic activity (muscarinic activity) of the same compound?
The muscarinic activity was “less muscarinic activity”.

What about the “margin of safety when used in man” value [4] of the same compound?
Its value is “wide margin of safety”.

What about the selectivity ratio [4] of the same compound?
The selectivity ratio was 7.2.

What about the LD50 [4] of the same compound?
The LD50 was 1.5 mg/kg.

And the ED (maximum effect) [5]?
The ED (maximum effect) was 0.1 mg/kg.

What about the “Potency, Mouse Miosis” value [6] of the same compound?
Its value is 1.6.

And the “in vivo potency versus neostigmine” value [6]?
The value was “more potent than neostigmine”.

What about the “Potency, Rat chromod.” value [7] of the same compound?
The value was 2.0.

And the “in vivo potency versus neostigmine” value [7]?
The value was “more potent than neostigmine”.

Which IC50 (acetylcholinesterase [2]) does the source give for `CCCC(=O)Oc1cccc([C@@H]2CCCC[C@@H]2[N+]2(C)CCCC2)c1` (relative stereo) [Example 5, cis-2-(3-Butyryloxyphenyl)-1-pyrrolidinocyclohexane methiodide] here?
Its IC50 is 20 nM.

Which IC50 (acetylcholinesterase [2]) does the source give for `Cc1ccc([C@H]2CCCC[C@H]2[N+]2(C)CCCC2)cc1` (relative stereo) [Example 7] here?
The IC50 was 1000 nM.

With `Cc1cccc([C@H]2CCCC[C@H]2[N+]2(C)CCCC2)c1` (relative stereo) [Example 8] as the compound, how does the IC50 (acetylcholinesterase [2]) read?
Its IC50 is 6000 nM.

With `C[N+]1([C@@H]2CCCC[C@@H]2c2ccc(Cl)cc2)CCCC1` (relative stereo) [Example 10] as the compound, how does the IC50 (acetylcholinesterase [2]) read?
Its IC50 is 200 nM.

With `C[N+]1([C@@H]2CCC[C@@H]2c2cccc(O)c2)CCCC1` (relative stereo) [Example 14] as the compound, how does the IC50 (acetylcholinesterase [2]) read?
The IC50 was 100 nM.

Which IC50 (acetylcholinesterase [2]) does the source give for `C[N+]1([C@@H]2CCCC[C@@H]2c2cc(O)ccc2O)CCCC1` (relative stereo) [Example 16] here?
Its IC50 is 10 nM.

With `C[N+]1([C@@H]2CCCC[C@H]2c2cccc(O)c2)CCCC1` (relative stereo) [trans-2-(3-hydroxyphenyl)-1-pyrrolidinocyclohexane methiodide, reference compound] as the compound, how does the IC50 (acetylcholinesterase [2]) read?
The IC50 was 100000 nM.

And the “activity of cis compound relative to trans compound (fold as active)” value (acetylcholinesterase [2]; Example 11 versus corresponding trans compound)?
Its value is roughly 5000 ×.

With `C[N+]1([C@@H]2CCCC[C@@H]2c2cccc(O)c2)CCCC1` (stereo in doubt) [Example 2, cis-2-(3-Hydroxyphenyl)-1-pyrrolidinocyclohexane Methobromide] as the compound, how does the IC50 (acetylcholinesterase [2]) read?
Its IC50 is 20 nM.

What about the “incidence of muscarinic effects” value ([8]; 0.6 to 0.8 mg I.V. versus 2.5 mg neostigmine with 1.2 mg atropine) of the same compound?
The value was “less than that produced by the neostigmine/atropine combination”.

And the “recovery from tubocurarine block” value [8]?
Its value is “Prompt recovery”.

For `C[N+]1([C@H]2CCCC[C@H]2c2cccc(O)c2)CCCC1` (stereo in doubt) [Example 11, cis-2-(3-hydroxyphenyl)-1-pyrrolidinocyclohexane methiodide], which Ki [1] is on record?
Its Ki is 7.3 nM.

What about the “antiacetylcholinesterase potency versus neostigmine” value [1] of the same compound?
The value was “more potent than neostigmine”.

What about the IC50 (acetylcholinesterase [2]) of the same compound?
Its IC50 is 20 nM.

What about the ED (maximum effect) [3] of the same compound?
Its ED (maximum effect) is 0.025 mg/kg.

What about the muscarinic activity (muscarinic activity) of the same compound?
The muscarinic activity was “less muscarinic activity”.

What about the “margin of safety when used in man” value [4] of the same compound?
The value was “wide margin of safety”.

What about the selectivity ratio [4] of the same compound?
The selectivity ratio was 15.

And the LD50 [4]?
Its LD50 is 0.18 mg/kg.

What about the ED (maximum effect) [5] of the same compound?
Its ED (maximum effect) is 0.03 mg/kg.

What about the “Potency, Mouse Miosis” value [6] of the same compound?
Its value is 9.6.

What about the “in vivo potency versus neostigmine” value [6] of the same compound?
Its value is “more potent than neostigmine”.

And the “Potency, Rat chromod.” value [7]?
The value was 6.0.

And the “in vivo potency versus neostigmine” value [7]?
Its value is “more potent than neostigmine”.

For `CC[N+](CC)(CCNC(=O)C(=O)NCC[N+](CC)(CC)Cc1ccccc1Cl)Cc1ccccc1Cl` [Ambenonium, reference compound], which “Potency, Mouse Miosis” value [6] is on record?
The value was 0.06.

What about the “Potency, Rat chromod.” value [7] of the same compound?
The value was 0.03.

With `CC[N+](C)(C)c1cccc(O)c1` [Edrophonium, reference compound] as the compound, how does the “Potency, Mouse Miosis” value [6] read?
The value was 0.04.

And the “Potency, Rat chromod.” value [7]?
Its value is 0.09.

With `CN(C)C(=O)Oc1cccc([N+](C)(C)C)c1` [Neostigmine, reference compound] as the compound, how does the Ki [1] read?
The Ki was 30 nM.

And the ED (maximum effect) [3]?
The ED (maximum effect) was 0.1 mg/kg.

And the “recovery from tubocurarine block” value [8]?
The value was “Prompt recovery”.

And the “clinical intravenous dose to reverse the neuromuscular effects of tubocurarine” value [9]?
Its value is 2.5 to 3.0 mg.

What about the LD50 [4] of the same compound?
The LD50 was 0.2 mg/kg.

And the ED (maximum effect) [5]?
Its ED (maximum effect) is 0.1 mg/kg.

And the “reversal of enzyme inhibition” value (acetylcholinesterase [10])?
Its value is “relatively slow reversal”.

For `CN(C)C(=O)Oc1ccc[n+](C)c1` [Pyridostigmine, reference compound], which Ki [1] is on record?
The Ki was 4800 nM.

What about the “reversal of enzyme inhibition” value (acetylcholinesterase [10]) of the same compound?
Its value is “relatively slow reversal”.

Which “Potency, Mouse Miosis” value [6] does the source give for `Nc1c2c(nc3ccccc13)CCCC2` [Tacrine, reference compound] here?
Its value is 0.21.

What about the “Potency, Rat chromod.” value [7] of the same compound?
Its value is 0.38.
